Test results reported in ChEMBL document CHEMBL5058645, “Data for DCP probe JNJ-6204” (2022).

Columns and labels:
[1] = biological target: Serine/threonine-protein kinase ATR (Homo sapiens) (UniProt Q13535); assay: ATR/ATRIP(h) Kinase panel; conditions: Compound concentration 1.0 uM, tested as the 2H-labelled form
[2] = biological target: eIF-2-alpha kinase GCN2 (Homo sapiens) (UniProt Q9P2K8); assay: GCN2(h) Kinase panel; conditions: Compound concentration 1.0 uM, tested as the 2H-labelled form
eIF-2-alpha kinase GCN2 (Homo sapiens), sequence (Q9P2K8 whole entry, canonical isoform): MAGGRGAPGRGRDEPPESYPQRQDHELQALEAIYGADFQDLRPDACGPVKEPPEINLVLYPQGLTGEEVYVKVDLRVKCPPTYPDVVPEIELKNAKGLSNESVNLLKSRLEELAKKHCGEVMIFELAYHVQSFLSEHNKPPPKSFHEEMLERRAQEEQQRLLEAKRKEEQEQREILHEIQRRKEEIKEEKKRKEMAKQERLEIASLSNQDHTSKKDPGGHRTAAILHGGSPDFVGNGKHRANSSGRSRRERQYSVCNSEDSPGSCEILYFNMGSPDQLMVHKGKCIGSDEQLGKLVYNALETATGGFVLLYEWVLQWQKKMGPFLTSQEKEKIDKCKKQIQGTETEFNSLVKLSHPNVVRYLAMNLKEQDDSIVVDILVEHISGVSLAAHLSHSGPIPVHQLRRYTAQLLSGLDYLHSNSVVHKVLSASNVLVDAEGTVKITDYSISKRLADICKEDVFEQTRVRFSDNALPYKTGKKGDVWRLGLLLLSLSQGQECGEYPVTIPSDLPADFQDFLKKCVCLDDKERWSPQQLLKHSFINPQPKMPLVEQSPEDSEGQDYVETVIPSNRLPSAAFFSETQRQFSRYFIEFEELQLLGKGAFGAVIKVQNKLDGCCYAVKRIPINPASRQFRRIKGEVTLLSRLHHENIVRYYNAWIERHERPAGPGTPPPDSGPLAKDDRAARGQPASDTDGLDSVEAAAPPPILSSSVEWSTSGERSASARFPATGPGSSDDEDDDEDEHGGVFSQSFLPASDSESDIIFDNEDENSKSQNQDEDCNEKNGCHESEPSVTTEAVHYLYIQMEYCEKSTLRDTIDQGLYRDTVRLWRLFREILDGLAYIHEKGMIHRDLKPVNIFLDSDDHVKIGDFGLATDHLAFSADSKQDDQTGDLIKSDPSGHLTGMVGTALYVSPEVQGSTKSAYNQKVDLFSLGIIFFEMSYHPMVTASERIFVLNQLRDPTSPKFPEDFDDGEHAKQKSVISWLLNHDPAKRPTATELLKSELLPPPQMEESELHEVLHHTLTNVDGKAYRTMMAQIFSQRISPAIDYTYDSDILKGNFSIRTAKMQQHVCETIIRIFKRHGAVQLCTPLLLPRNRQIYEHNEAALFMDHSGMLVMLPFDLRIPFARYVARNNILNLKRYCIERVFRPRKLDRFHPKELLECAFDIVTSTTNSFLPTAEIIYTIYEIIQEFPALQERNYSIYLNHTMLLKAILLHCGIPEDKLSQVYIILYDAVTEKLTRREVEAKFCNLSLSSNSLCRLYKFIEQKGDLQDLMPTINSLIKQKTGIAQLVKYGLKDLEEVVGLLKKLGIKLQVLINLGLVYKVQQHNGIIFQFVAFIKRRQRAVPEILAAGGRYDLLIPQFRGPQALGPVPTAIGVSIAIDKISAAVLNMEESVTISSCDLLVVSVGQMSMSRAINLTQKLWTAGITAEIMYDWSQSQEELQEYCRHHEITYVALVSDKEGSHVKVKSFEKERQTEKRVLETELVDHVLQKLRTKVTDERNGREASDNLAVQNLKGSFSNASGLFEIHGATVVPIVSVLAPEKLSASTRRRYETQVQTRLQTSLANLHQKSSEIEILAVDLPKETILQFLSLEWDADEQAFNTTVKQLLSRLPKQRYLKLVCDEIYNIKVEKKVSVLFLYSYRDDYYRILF

[3] = biological target: Phosphatidylinositol 4,5-bisphosphate 3-kinase catalytic subunit alpha isoform (Homo sapiens) (UniProt P42336); assay: PI3 Kinase (p110a/p85a)(h) Kinase panel; conditions: Compound concentration 1.0 uM, tested as the 2H-labelled form
[4] = biological target: Tyrosine-protein kinase BTK (Homo sapiens) (UniProt Q06187); assay: BTK(h) Kinase panel; conditions: Compound concentration 1.0 uM, tested as the 2H-labelled form
[5] = biological target: cGMP-dependent protein kinase 2 (Homo sapiens) (UniProt Q13237); assay: PRKG2(h) Kinase panel; conditions: Compound concentration 1.0 uM, tested as the 2H-labelled form
[6] = biological target: cAMP-dependent protein kinase catalytic subunit PRKX (Homo sapiens) (UniProt P51817); assay: PrKX(h) Kinase panel; conditions: Compound concentration 1.0 uM, tested as the 2H-labelled form
cAMP-dependent protein kinase catalytic subunit PRKX (Homo sapiens), sequence (P51817 whole entry): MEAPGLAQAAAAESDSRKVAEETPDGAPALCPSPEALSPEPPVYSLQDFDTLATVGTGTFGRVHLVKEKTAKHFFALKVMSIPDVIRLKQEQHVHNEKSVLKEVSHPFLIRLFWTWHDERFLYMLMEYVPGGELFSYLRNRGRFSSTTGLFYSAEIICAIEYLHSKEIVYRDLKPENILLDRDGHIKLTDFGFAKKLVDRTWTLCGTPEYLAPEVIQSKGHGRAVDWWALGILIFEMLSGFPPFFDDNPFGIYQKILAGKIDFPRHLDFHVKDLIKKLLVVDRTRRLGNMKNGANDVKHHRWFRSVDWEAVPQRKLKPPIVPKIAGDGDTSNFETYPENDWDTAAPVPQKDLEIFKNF

[7] = biological target: NUAK family SNF1-like kinase 1 (Homo sapiens) (UniProt O60285); assay: ARK5(h) Kinase panel; conditions: Compound concentration 1.0 uM, tested as the 2H-labelled form
[8] = biological target: Misshapen-like kinase 1 (Homo sapiens) (UniProt Q8N4C8); assay: MINK(h) Kinase panel; conditions: Compound concentration 1.0 uM, tested as the 2H-labelled form
[9] = biological target: Epidermal growth factor receptor (Homo sapiens) (UniProt P00533); assay: EGFR(h) Kinase panel; conditions: Compound concentration 1.0 uM, tested as the 2H-labelled form
[10] = biological target: Myosin-IIIb (Homo sapiens) (UniProt Q8WXR4); assay: MYO3B(h) Kinase panel; conditions: Compound concentration 1.0 uM, tested as the 2H-labelled form
Homo sapiens = species on record: Homo sapiens; assay: CK2(h) Kinase panel; conditions: Compound concentration 1.0 uM, tested as the 2H-labelled form
[11] = biological target: Cyclin-dependent kinase 9 (Homo sapiens) (UniProt P50750); assay: CDK9/cyclin T1(h) Kinase panel; conditions: Compound concentration 1.0 uM, tested as the 2H-labelled form
[12] = biological target: Cyclin-dependent kinase 14 (Homo sapiens) (UniProt O94921); assay: CDK14/cyclinY(h) Kinase panel; conditions: Compound concentration 1.0 uM, tested as the 2H-labelled form
[13] = biological target: Calcium/calmodulin-dependent protein kinase type II subunit beta (Homo sapiens) (UniProt Q13554); assay: CaMKIIbeta(h) Kinase panel; conditions: Compound concentration 1.0 uM, tested as the 2H-labelled form
Calcium/calmodulin-dependent protein kinase type II subunit beta (Homo sapiens), sequence (Q13554 whole entry): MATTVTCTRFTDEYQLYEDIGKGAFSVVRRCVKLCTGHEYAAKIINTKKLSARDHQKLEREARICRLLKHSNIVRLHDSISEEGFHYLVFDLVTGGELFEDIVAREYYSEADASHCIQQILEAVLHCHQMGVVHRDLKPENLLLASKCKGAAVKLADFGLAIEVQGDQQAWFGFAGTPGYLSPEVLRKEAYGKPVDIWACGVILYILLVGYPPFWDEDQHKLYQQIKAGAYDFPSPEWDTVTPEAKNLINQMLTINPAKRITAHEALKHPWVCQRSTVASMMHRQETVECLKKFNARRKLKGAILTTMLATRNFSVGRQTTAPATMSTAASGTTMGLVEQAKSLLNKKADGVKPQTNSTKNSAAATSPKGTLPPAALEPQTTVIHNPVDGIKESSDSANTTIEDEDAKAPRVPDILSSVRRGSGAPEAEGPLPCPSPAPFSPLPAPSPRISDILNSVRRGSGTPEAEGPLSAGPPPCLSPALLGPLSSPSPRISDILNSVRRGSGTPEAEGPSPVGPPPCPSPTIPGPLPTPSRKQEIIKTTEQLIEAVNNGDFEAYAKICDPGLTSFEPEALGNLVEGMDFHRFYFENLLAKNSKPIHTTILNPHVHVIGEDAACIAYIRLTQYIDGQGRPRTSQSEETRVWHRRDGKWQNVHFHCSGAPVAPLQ

[14] = biological target: Dual specificity mitogen-activated protein kinase kinase 3 (Homo sapiens) (UniProt P46734); assay: MKK3(h) Kinase panel; conditions: Compound concentration 1.0 uM, tested as the 2H-labelled form
[15] = biological target: Cyclin-dependent kinase 12 (Homo sapiens) (UniProt Q9NYV4); assay: CDK12/cyclinK(h) Kinase panel; conditions: Compound concentration 1.0 uM, tested as the 2H-labelled form
[16] = biological target: TRAF2 and NCK-interacting protein kinase (Homo sapiens, UniProt Q9UKE5); assay: TNIK(h) Kinase panel; conditions: Compound concentration 1.0 uM, tested as the 2H-labelled form
[17] = biological target: Tyrosine-protein kinase JAK1 (Homo sapiens) (UniProt P23458); assay: JAK1(h) Kinase panel; conditions: Compound concentration 1.0 uM, tested as the 2H-labelled form
[18] = biological target: Ephrin type-A receptor 5 (Homo sapiens) (UniProt P54756); assay: EphA5(h) Kinase panel; conditions: Compound concentration 1.0 uM, tested as the 2H-labelled form
[19] = biological target: Dual specificity tyrosine-phosphorylation-regulated kinase 3 (Homo sapiens) (UniProt O43781); assay: DYRK3(h) Kinase panel; conditions: Compound concentration 1.0 uM, tested as the 2H-labelled form
[20] = biological target: Sodium-dependent serotonin transporter (Homo sapiens) (UniProt P31645); conditions: Compound concentration 10.0 uM, tested as the 2H-labelled form
Sodium-dependent serotonin transporter (Homo sapiens), sequence (P31645 whole entry, looked up): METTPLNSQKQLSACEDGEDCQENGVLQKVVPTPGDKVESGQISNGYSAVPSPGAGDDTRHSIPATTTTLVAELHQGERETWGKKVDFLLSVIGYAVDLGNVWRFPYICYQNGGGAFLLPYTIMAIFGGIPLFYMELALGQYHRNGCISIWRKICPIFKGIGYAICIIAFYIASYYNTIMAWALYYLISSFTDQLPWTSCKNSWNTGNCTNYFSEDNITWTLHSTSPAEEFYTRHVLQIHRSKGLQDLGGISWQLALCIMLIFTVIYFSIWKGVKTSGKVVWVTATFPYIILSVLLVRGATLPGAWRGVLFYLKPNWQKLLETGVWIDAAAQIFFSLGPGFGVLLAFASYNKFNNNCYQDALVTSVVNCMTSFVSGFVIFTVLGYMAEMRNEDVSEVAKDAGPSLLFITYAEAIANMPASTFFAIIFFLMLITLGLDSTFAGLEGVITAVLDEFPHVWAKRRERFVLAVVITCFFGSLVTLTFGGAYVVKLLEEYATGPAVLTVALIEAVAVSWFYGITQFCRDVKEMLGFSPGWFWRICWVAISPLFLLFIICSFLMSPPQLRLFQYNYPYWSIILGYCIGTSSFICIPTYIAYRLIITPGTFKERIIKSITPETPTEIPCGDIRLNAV

[21] = biological target: Cyclin-dependent kinase-like 3 (Homo sapiens) (UniProt Q8IVW4); assay: CDKL3(h) Kinase panel; conditions: Compound concentration 1.0 uM, tested as the 2H-labelled form
[22] = biological target: Muscle, skeletal receptor tyrosine-protein kinase (Homo sapiens) (UniProt O15146); assay: MuSK(h) Kinase panel; conditions: Compound concentration 1.0 uM, tested as the 2H-labelled form
[23] = biological target: Serine/threonine-protein kinase NIM1 (Homo sapiens) (UniProt Q8IY84); assay: NIM1(h) Kinase panel; conditions: Compound concentration 1.0 uM, tested as the 2H-labelled form
[24] = biological target: Dual specificity tyrosine-phosphorylation-regulated kinase 2 (Homo sapiens) (UniProt Q92630); assay: DYRK2(h) Kinase panel; conditions: Compound concentration 1.0 uM, tested as the 2H-labelled form
[25] = biological target: 5-hydroxytryptamine receptor 5A (Homo sapiens) (UniProt P47898); conditions: Compound concentration 10.0 uM, tested as the 2H-labelled form
[26] = biological target: Epithelial discoidin domain-containing receptor 1 (Homo sapiens) (UniProt Q08345); assay: DDR1(h) Kinase panel; conditions: Compound concentration 1.0 uM, tested as the 2H-labelled form
[27] = biological target: Mitogen-activated protein kinase kinase kinase 3 (Homo sapiens) (UniProt Q99759); assay: MEKK3(h) Kinase panel; conditions: Compound concentration 1.0 uM, tested as the 2H-labelled form
Mitogen-activated protein kinase kinase kinase 3 (Homo sapiens), sequence (Q99759 whole entry): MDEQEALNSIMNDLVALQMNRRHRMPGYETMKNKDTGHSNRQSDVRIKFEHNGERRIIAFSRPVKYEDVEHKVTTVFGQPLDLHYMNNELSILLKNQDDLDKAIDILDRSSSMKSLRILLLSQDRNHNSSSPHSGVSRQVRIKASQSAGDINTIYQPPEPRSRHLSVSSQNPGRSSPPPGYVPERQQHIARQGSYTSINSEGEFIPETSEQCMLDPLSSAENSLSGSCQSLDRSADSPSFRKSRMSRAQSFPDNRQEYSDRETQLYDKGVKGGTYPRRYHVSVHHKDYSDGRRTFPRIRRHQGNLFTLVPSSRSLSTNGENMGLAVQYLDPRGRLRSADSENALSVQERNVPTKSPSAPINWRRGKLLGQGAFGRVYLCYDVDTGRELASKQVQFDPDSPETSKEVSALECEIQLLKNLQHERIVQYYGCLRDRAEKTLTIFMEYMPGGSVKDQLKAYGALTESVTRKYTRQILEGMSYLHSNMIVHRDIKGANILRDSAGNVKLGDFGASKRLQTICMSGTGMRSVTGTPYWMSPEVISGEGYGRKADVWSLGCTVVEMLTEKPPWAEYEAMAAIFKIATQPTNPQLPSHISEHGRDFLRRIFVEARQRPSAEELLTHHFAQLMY

[28] = biological target: 3-phosphoinositide-dependent protein kinase 1 (Homo sapiens) (UniProt O15530); assay: PDK1(h) Kinase panel; conditions: Compound concentration 1.0 uM, tested as the 2H-labelled form
[29] = biological target: Serine/threonine-protein kinase haspin (Homo sapiens) (UniProt Q8TF76); assay: Haspin(h) Kinase panel; conditions: Compound concentration 1.0 uM, tested as the 2H-labelled form
[30] = biological target: Wee1-like protein kinase (Homo sapiens) (UniProt P30291); assay: Wee1(h) Kinase panel; conditions: Compound concentration 1.0 uM, tested as the 2H-labelled form
[31] = biological target: Tyrosine-protein kinase Lck (Homo sapiens) (UniProt P06239); assay: Lck(h) activated Kinase panel; conditions: Compound concentration 1.0 uM, tested as the 2H-labelled form
Tyrosine-protein kinase Lck (Homo sapiens), sequence (P06239 2-509 limits assumed): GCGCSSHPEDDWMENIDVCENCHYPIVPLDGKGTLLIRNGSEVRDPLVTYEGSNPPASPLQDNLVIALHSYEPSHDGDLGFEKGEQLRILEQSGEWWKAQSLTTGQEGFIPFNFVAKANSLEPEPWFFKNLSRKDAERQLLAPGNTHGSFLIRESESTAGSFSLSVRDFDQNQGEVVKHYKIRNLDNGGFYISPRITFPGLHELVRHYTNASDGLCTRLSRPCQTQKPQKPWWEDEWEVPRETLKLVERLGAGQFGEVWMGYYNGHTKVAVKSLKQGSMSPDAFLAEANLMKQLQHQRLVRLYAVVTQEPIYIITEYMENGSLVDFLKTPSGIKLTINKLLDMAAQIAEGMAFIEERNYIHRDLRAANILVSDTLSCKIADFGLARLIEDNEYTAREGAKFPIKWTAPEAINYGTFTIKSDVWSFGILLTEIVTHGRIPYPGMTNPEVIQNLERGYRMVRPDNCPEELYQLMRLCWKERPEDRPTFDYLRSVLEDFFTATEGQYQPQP

[32] = biological target: Aurora kinase C (Homo sapiens) (UniProt Q9UQB9); assay: Aurora-C(h) Kinase panel; conditions: Compound concentration 1.0 uM, tested as the 2H-labelled form
[33] = biological target: Serine/threonine-protein kinase DCLK1 (Homo sapiens) (UniProt O15075); assay: DCAMKL1(h) Kinase panel; conditions: Compound concentration 1.0 uM, tested as the 2H-labelled form
[34] = biological target: Serine/threonine-protein kinase D2 (Homo sapiens) (UniProt Q9BZL6); assay: PKD2(h) Kinase panel; conditions: Compound concentration 1.0 uM, tested as the 2H-labelled form
[35] = biological target: Dual specificity protein kinase CLK3 (Homo sapiens) (UniProt P49761); assay: CLK3(h) Kinase panel; conditions: Compound concentration 1.0 uM, tested as the 2H-labelled form
[36] = biological target: Serine/threonine-protein kinase 32B (Homo sapiens) (UniProt Q9NY57); assay: STK32B(h) Kinase panel; conditions: Compound concentration 1.0 uM, tested as the 2H-labelled form
[37] = biological target: Serine/threonine-protein kinase A-Raf (Homo sapiens) (UniProt P10398); assay: A-Raf(h) Kinase panel; conditions: Compound concentration 1.0 uM, tested as the 2H-labelled form
Serine/threonine-protein kinase A-Raf (Homo sapiens), sequence (P10398 whole entry): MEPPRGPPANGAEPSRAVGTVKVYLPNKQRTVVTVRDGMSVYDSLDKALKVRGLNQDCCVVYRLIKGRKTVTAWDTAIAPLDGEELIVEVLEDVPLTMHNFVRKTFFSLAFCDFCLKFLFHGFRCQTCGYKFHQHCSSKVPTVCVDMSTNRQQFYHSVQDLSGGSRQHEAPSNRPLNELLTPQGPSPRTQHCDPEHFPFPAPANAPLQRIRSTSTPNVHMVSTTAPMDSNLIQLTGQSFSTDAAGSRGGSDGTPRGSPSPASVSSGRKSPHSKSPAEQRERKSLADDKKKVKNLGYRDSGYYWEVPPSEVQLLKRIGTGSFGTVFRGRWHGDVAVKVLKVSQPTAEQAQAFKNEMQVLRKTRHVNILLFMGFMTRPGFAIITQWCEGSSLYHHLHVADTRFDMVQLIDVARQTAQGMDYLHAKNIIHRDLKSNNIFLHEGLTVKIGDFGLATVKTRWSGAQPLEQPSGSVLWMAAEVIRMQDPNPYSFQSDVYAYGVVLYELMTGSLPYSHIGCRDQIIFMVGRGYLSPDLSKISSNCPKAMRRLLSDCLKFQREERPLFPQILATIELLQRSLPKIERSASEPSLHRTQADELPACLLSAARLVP

[38] = biological target: Ephrin type-A receptor 8 (Homo sapiens) (UniProt P29322); assay: EphA8(h) Kinase panel; conditions: Compound concentration 1.0 uM, tested as the 2H-labelled form
[39] = biological target: Serine/threonine-protein kinase 16 (Homo sapiens) (UniProt O75716); assay: STK16(h) Kinase panel; conditions: Compound concentration 1.0 uM, tested as the 2H-labelled form
[40] = biological target: Dual specificity mitogen-activated protein kinase kinase 6 (Homo sapiens) (UniProt P52564); assay: MKK6(h) Kinase panel; conditions: Compound concentration 1.0 uM, tested as the 2H-labelled form
[41] = biological target: MAP/microtubule affinity-regulating kinase 3 (Homo sapiens) (UniProt P27448); assay: MARK3(h) Kinase panel; conditions: Compound concentration 1.0 uM, tested as the 2H-labelled form
[42] = biological target: Calcium/calmodulin-dependent protein kinase type 1 (Homo sapiens) (UniProt Q14012); assay: CaMKI(h) Kinase panel; conditions: Compound concentration 1.0 uM, tested as the 2H-labelled form
[43] = biological target: Non-receptor tyrosine-protein kinase TYK2 (Homo sapiens) (UniProt P29597); assay: TYK2(h) Kinase panel; conditions: Compound concentration 1.0 uM, tested as the 2H-labelled form
[44] = biological target: Ephrin type-B receptor 4 (Homo sapiens) (UniProt P54760); assay: EphB4(h) Kinase panel; conditions: Compound concentration 1.0 uM, tested as the 2H-labelled form
[45] = biological target: Serine/threonine-protein kinase/endoribonuclease IRE1 (Homo sapiens) (UniProt O75460); assay: IRE1(h) Kinase panel; conditions: Compound concentration 1.0 uM, tested as the 2H-labelled form
[46] = biological target: 5-hydroxytryptamine receptor 2B (Homo sapiens) (UniProt P41595); conditions: Compound concentration 10.0 uM, tested as the 2H-labelled form
[47] = biological target: Cyclin-dependent kinase 2 (Homo sapiens) (UniProt P24941); assay: CDK2/cyclinE(h) Kinase panel; conditions: Compound concentration 1.0 uM, tested as the 2H-labelled form
[48] = biological target: Serine/threonine-protein kinase WNK2 (Homo sapiens) (UniProt Q9Y3S1); assay: WNK2(h) Kinase panel; conditions: Compound concentration 1.0 uM, tested as the 2H-labelled form
[49] = biological target: Receptor-interacting serine/threonine-protein kinase 2 (Homo sapiens) (UniProt O43353); assay: RIPK2(h) Kinase panel; conditions: Compound concentration 1.0 uM, tested as the 2H-labelled form
[50] = biological target: Transient receptor potential cation channel subfamily M member 7 (Homo sapiens) (UniProt Q96QT4); assay: ChaK1(h) Kinase panel; conditions: Compound concentration 1.0 uM, tested as the 2H-labelled form

Measured: inhibition

CC1(C)Cn2nc(-c3ccc(F)cn3)c(-c3ccnc4[nH]ncc34)c2CO1
inactive: [1] 16% | [2] -6% | [3] 2% | [4] -4% | [5] 11% | [6] 0% | [7] 1% | [8] 2% | [9] -8% | [10] 12% | Homo sapiens 2% | [11] -3% | [12] 9% | [13] 18% | [14] 7% | [15] -2% | [16] 50% | [17] -2% | [18] -3% | [19] 7% | [20] 2.66% | [21] -7% | [22] -7% | [23] 13% | [24] 0% | [25] 3.27% | [26] 11% | [27] -4% | [28] 9% | [29] 9% | [30] 10% | [31] -10% | [32] 7% | [33] 10% | [34] 5% | [35] -9% | [36] 0% | [37] 12% | [38] 2% | [39] 8% | [40] 9% | [41] -2% | [42] 5% | [43] -5% | [44] -2% | [45] 0% | [46] 6.01% | [47] 7% | [48] 8% | [49] 2% | [50] 10%
